Results on nine molecules are retold here after PubChem BioAssay (NCI).

In general, TGI refers to the concentration giving total growth inhibition. Low readings indicate greater sensitivity of the cells, high ones lower sensitivity of the cells. The term GI50 denotes the concentration giving 50% growth inhibition.

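Five compound concentrations were applied to cells in 96-well plates for 48 hours; endpoints were derived by simple linear interpolation of the resulting dose-response curve. GI50 = concentration required for 50% inhibition of growth. Definition used: TGI = concentration required for complete inhibition of growth.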 Bounds are passed on as bounds.

Some test systems named below: CCRF-CEM leukemia; HL-60(TB) leukemia; HT29 colon; NCI-H226 lung; OVCAR-5 ovarian; PC-3 prostate; SNB-75 CNS; T-47D breast; UACC-257 melanoma; SK-MEL-2 melanoma.
What all share (test): DTP human tumour cell line panel, 48 h

As for `Nc1nc(Cl)nc2c1ncn2C1CCC(COP(=O)(O)OP(=O)(O)OP(=O)(O)O)O1` (configuration not stated), the TGI was over 100 µM in the test on CCRF-CEM leukemia; 63.7 µM in the test with HL-60(TB) leukemia; 90.9 µM in the test with HT29 colon; over 100 µM in the test with NCI-H226 lung; 93.3 µM with OVCAR-5 ovarian; 64.3 µM in the test on PC-3 prostate. For the same molecule, the TGI in the test with SNB-75 CNS is 94.2 µM; in the test with T-47D breast, over 100 µM; in the test on UACC-257 melanoma it was over 100 µM.

Turning to `CC(=O)Nc1ccc(S(=O)(=O)c2ccc(NC(C)=O)cc2)cc1`, the GI50 with CCRF-CEM leukemia, in the test on HL-60(TB) leukemia, with HT29 colon, with NCI-H226 lung, in the test on OVCAR-5 ovarian and with PC-3 prostate was over 100 µM throughout. Besides, the GI50 in the test with SK-MEL-2 melanoma, in the test on T-47D breast and in the test on UACC-257 melanoma was over 100 µM throughout. Further, the TGI with CCRF-CEM leukemia, in the test on HL-60(TB) leukemia, with HT29 colon, in the test on NCI-H226 lung, in the test with OVCAR-5 ovarian and in the test on PC-3 prostate was over 100 µM each time. Besides, the concentration for total growth inhibition (TGI) with SK-MEL-2 melanoma, in the test on T-47D breast and in the test with UACC-257 melanoma was over 100 µM in each case.

With `Cc1ccc(C)c(N2C(=O)C(=O)c3c(C)ccc(C)c32)c1`, the concentration for total growth inhibition (TGI) in the test with HL-60(TB) leukemia was over 100 µM; in the test on HT29 colon, 46.4 µM; in the test on NCI-H226 lung it was over 100 µM; in the test with OVCAR-5 ovarian, over 100 µM; in the test on PC-3 prostate, over 100 µM; in the test on SK-MEL-2 melanoma it was 68.4 µM. The TGI in the test with SNB-75 CNS is over 100 µM; in the test with T-47D breast it was 68.3 µM; in the test on UACC-257 melanoma, 48.2 µM.

Consider `CN1CCN(CCCOc2ccc3nc(Nc4ccc(C(F)(F)F)c(Cl)c4)ccc3c2)CC1`, for which the GI50 in the test with CCRF-CEM leukemia is 1.57 µM; in the test on HL-60(TB) leukemia it was 1.94 µM; with HT29 colon it was 0.493 µM; with OVCAR-5 ovarian, 1.8 µM; in the test with PC-3 prostate it was 1.68 µM; in the test with SK-MEL-2 melanoma it was 2.44 µM. In addition, the GI50 is 0.903 µM with SNB-75 CNS and 1.62 µM in the test with T-47D breast. Moreover, the TGI was determined as 3.64 µM with CCRF-CEM leukemia; 4.01 µM in the test with HL-60(TB) leukemia; 1.87 µM with HT29 colon; 3.75 µM in the test on OVCAR-5 ovarian; 3.56 µM in the test on PC-3 prostate; 4.46 µM with SK-MEL-2 melanoma. The results for the TGI in the test on SNB-75 CNS and in the test with T-47D breast were 2.94 µM and 4.54 µM, respectively.

As for `CNc1ccc(C(=O)CC(O)CCC(C)C2OC(=O)CC(O)CC(=O)CC(O)CC(O)CC(O)CC(O)CC3(O)CC(O)C(C(=O)NCCc4ccccn4)C(CC(OC4OC(C)C(O)C(N)C4O)/C=C/C=C/C=C/C=C\C=C/C=C/C=C/C2C)O3)cc1` (configuration not stated), the GI50 was 1.77 µM with CCRF-CEM leukemia; 5.01 µM in the test on HL-60(TB) leukemia; 2.65 µM in the test with HT29 colon; 2.29 µM with NCI-H226 lung; 0.323 µM in the test with OVCAR-5 ovarian; 0.336 µM in the test on PC-3 prostate. For the same molecule, the figures for the GI50 in the test with SNB-75 CNS and in the test with T-47D breast were over 50 µM and 1.26 µM, respectively. The TGI with CCRF-CEM leukemia was over 50 µM; in the test on HL-60(TB) leukemia it was 30.2 µM; with HT29 colon it was over 50 µM; with NCI-H226 lung it was 9.71 µM; in the test with OVCAR-5 ovarian, 2.02 µM; in the test with PC-3 prostate, over 11.6 µM. Besides, the TGI with SK-MEL-2 melanoma, in the test with SNB-75 CNS and with T-47D breast was over 50 µM each time.

For the molecule `COc1cc([N+](=O)[O-])c(OC)cc1-c1nc2n(c1/C(N)=N/C(=N)N)CCS2`, the GI50 in the test with CCRF-CEM leukemia, with HL-60(TB) leukemia, with HT29 colon, in the test with NCI-H226 lung, in the test with OVCAR-5 ovarian and in the test with PC-3 prostate was over 100 µM in each case. Also, the GI50 in the test with SNB-75 CNS is 6.76 µM; with T-47D breast, 86.8 µM; in the test on UACC-257 melanoma, 15.9 µM. For the same molecule, the TGI in the test with CCRF-CEM leukemia, with HL-60(TB) leukemia, in the test with HT29 colon, in the test with NCI-H226 lung, in the test with OVCAR-5 ovarian and in the test with PC-3 prostate was over 100 µM throughout. For the same molecule, the TGI was over 100 µM in the test on SNB-75 CNS, over 100 µM in the test with T-47D breast and 57 µM with UACC-257 melanoma.

In the case of `CCCN(CCC)c1ccc(/C=N/NC(=O)c2cccnc2)cc1`, the GI50 is 37.1 µM in the test on CCRF-CEM leukemia; 22.6 µM in the test on HL-60(TB) leukemia; 11 µM in the test with HT29 colon; 47.6 µM with NCI-H226 lung; 38 µM with OVCAR-5 ovarian; 29.5 µM in the test on PC-3 prostate. The GI50 is 22 µM in the test on SNB-75 CNS, 28.1 µM in the test on T-47D breast and 31 µM with UACC-257 melanoma. Moreover, the total growth inhibition concentration (TGI) is over 100 µM in the test on CCRF-CEM leukemia; 63.7 µM in the test on HL-60(TB) leukemia; 32 µM with HT29 colon; over 100 µM in the test on NCI-H226 lung; over 100 µM in the test with OVCAR-5 ovarian; over 100 µM in the test with PC-3 prostate. Further, the total growth inhibition concentration (TGI) is 68.1 µM in the test with SNB-75 CNS, over 100 µM in the test on T-47D breast and over 100 µM with UACC-257 melanoma.

`O=C1CCCC(=O)C1C(=O)c1ccc(C(F)(F)F)cc1[N+](=O)[O-]`: the GI50 in the test on CCRF-CEM leukemia, in the test with HL-60(TB) leukemia, in the test on HT29 colon, in the test with NCI-H226 lung, with OVCAR-5 ovarian and in the test on PC-3 prostate was over 100 µM each time. The GI50 in the test with SNB-75 CNS, in the test on T-47D breast and in the test with UACC-257 melanoma was over 100 µM throughout. The total growth inhibition concentration (TGI) in the test with CCRF-CEM leukemia, in the test on HL-60(TB) leukemia, with HT29 colon, with NCI-H226 lung, with OVCAR-5 ovarian and with PC-3 prostate was over 100 µM in each case. For the same molecule, the concentration for total growth inhibition (TGI) in the test with SNB-75 CNS, with T-47D breast and with UACC-257 melanoma was over 100 µM throughout.

With `COc1ccc(OC)c(-c2cc(C(=O)O)c3cc4ccccc4cc3n2)c1`, the TGI in the test on HL-60(TB) leukemia, in the test with HT29 colon, in the test on NCI-H226 lung, in the test with OVCAR-5 ovarian, in the test on PC-3 prostate and in the test on SK-MEL-2 melanoma was over 100 µM throughout. The total growth inhibition concentration (TGI) in the test with SNB-75 CNS, with T-47D breast and with UACC-257 melanoma was over 100 µM each time.
